Results on nine molecules are retold here after patent publication EP0068806A2, “Basic acyl amides of (5-amino-1,3-dialkylpyrazol-4-yl)(aryl)methanones, processes for their production, and pharmaceutical compositions containing such compounds” (WARNER-LAMBERT COMPANY, priority 1981, dated 1983).

The subject of this assay is Long-Evans rats or squirrel-monkeys. The assay is described as follows: Conditioned lever-press avoidance of electric footshock (antipsychotic activity). It counts as in vivo. Particulars: avoidance test for antipsychotic activity; Long-Evans rats or squirrel-monkeys (species per value not stated). The method, then: Representative compounds of the invention (identified in the examples) were also tested for antipsychotic activity according to the following protocol. The noted compounds had the indicated ED50 values (mg/kg) and are considered active as antipsychotic agents in the test procedure.
Mature male Long-Evans rats or squirrel-monkeys are conditioned to push a lever in order to avoid a painful electric footshock. If the animal fails to push the. lever, he receives a shock every 10 seconds until the lever is pushed. Shocks can be terminated by pushing the lever. Thereafter, as long as the lever is pushed at least once every 20 seconds, there will be no shock.
Each animal acts as its own control; one weekly session is used to establish baseline behavior and another session later in the week is used as a drug session. Once patterns of avoidance are established, the effects of standard and unknown compounds are studied.
All events are electronically programmed and the response to these events counted or used as feed-back to the program.

The ED50 is the dose that gives a 50% effect, or the effect in half of the subjects. A low value points to an effect at a small dose. `Cc1nn(C)c(NC(=O)CN2CCCC2)c1C(=O)c1ccccc1F` [Compound 1, N-[4-(2-Fluorobenzoyl)-1,3-dimethyl-1H-pyrazol-5-yl]-1-pyrrolidineacetamide] returned an ED50 of 48.2 mg/kg.

For the molecule `Cc1nn(C)c(NC(=O)CNCCCN2CCCCC2C)c1C(=O)c1ccccc1F` (stereo not drawn) [Compound 20, N-[4-(2-Fluorobenzoyl)-1,3-dimethyl-1H-pyrazol-5-yl]-2-[[3-(2-methyl-1-piperidinyl)propyl]amino]acetamide], the 50% effect level (ED50) was put at a dose of 21.4 mg/kg.

The molecule `Cc1nn(C)c(NC(=O)CN2CCCCC2)c1C(=O)c1ccccc1F` [Compound 5, N-[4-(2-Fluorobenzoyl)-1,3-dimethyl-1H-pyrazol-5-yl]-1-piperidine-acetamide] had an ED50 of 48 mg/kg.

With `Cc1nn(C)c(NC(=O)CSCCCN2CCCCC2C)c1C(=O)c1ccccc1F` (stereo not drawn) [Compound 43, N-[4-(2-Fluorobenzoyl)-1,3-dimethyl-1H-pyrazol-5-yl]-2-[[3-(2-methyl-1-piperidinyl)propyl]thio]acetamide], the ED50 turned out to be 26.5 mg/kg. Against the preceding molecule, the ED50 is about 1.8-fold lower.

Regarding `CC1=C(NCCN(C)CC(=O)Nc2c(C(=O)c3ccccc3F)c(C)nn2C)CCC1=O` [Compound 38, N-[4-(2-Fluorobenzoyl}-1,3-dimethyl-1H-pyrazol-5-yl]-2-[mothyl[2-[(2-methyl-3-oxo-1-cyclopenten-1-yl}amino]ethyl]amino]acetamide], the ED50 stood at 21.7 mg/kg.

`Cc1nn(C)c(NC(=O)CNCC2(C)OCCO2)c1C(=O)c1ccccc1F` [Compound 8, N-[4-(2-Fluorobenzoyl)-1,3-dimethyl-1H-pyrazol-5-yl]-3-[[(2-methyl-1,3-dioxolan-2-yl)methyl]amino]acetamide] returned an ED50 of 36.4 mg/kg. This ED50 is about 1.7-fold higher than that of the molecule before.

With `CCN(CC)CC(=O)Nc1c(C(=O)c2ccccc2F)c(C)nn1C` [Compound 6, 2-(Diethylamino)-N-[4-(2-fluorobenzoyl)-1,3-dimethyl-1H-pyrazol-5-yl]acetamide], it took a dose of 25.6 mg/kg to reach the 50% effect level (ED50).

Molecule `Cc1nn(C)c(NC(=O)CNCCCN2CCOCC2)c1C(=O)c1ccccc1F` [Compound 35] registered an ED50 of 51.6 mg/kg.

Molecule `Cc1nn(C)c(NC(=O)CN2CC3CCC(CC3)C2)c1C(=O)c1ccccc1F` [Compound 9, N-[4-(2-Fluorobenzoyl)-1,3-dinethyl-1H-pyrazol-5-yl]-3-azabicyclo-[3,2,2]nonane-3-acetamide] displayed an ED50 of 36.3 mg/kg.
